Measurements from PMC11714206, “Massively Parallel Screening of Toll/Interleukin‐1 Receptor (TIR)‐Derived Peptides Reveals Multiple Toll‐Like Receptors (TLRs)‐Targeting Immunomodulatory Peptides” (Advanced Science, 2024).
Where “and” joins values, the source holds several entries; their conditions need not be identical. Equal entries are not always repeated.

Target: T1, MyD88^TIR (Homo sapiens, UniProt Q99836)
T1 construct: MyD88 (residues 148–296); 6xHis; made in house; host or cells: E. coli BL21 (DE3)
Experiment: T‐Surf phage library (P8 and P3) selection against MyD88^TIR, four rounds, NGS read counts
Type: binding
Conditions: for P3_MyD88 Rank (after) / P3_MyD88 Rank (before): P3 library; for P8_MyD88 Rank (after) / P8_MyD88 Rank (before): P8 library; for Population: 4th round of selection against MyD88 TIR, share of NGS reads
Procedure, shortened: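 P8 and P3 T‐Surf libraries panned against plate-coated TIR domains (5 µg mL^−1), 1 h binding at RT, acid elution and TG1/helper-phage amplification per round. After four rounds, pools were PCR-barcoded and sequenced (NovaSeq, 100 bp paired-end, Phred ≥30); peptides ranked by read counts.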

[1] = 4R selection against MyD88, rank after grouping
[2] = 4R selection against MyD88, rank before grouping
[3] = selection against MyD88, rank by count after grouping
[4] = selection against MyD88, rank by count before grouping
[5] = P8_MyD88: rank by count after grouping
[6] = P8_MyD88: rank by count before grouping
[7] = P8_MyD88: rank by NGS read count after grouping
[8] = P8_MyD88: rank by NGS read count before grouping
[9] = selection against MyD88, rank after grouping
[10] = selection against MyD88, rank before grouping
[11] = P3_MyD88 pool: P3 T-Surf phage library
[12] = P8_MyD88 pool: P8 T-Surf phage library
[13] = P3_MyD88: rank by count after grouping
[14] = P3_MyD88: rank by count before grouping
[15] = selection against MyD88 TIR, rank by count after grouping
[16] = selection against MyD88 TIR, rank by count before grouping

T1 sequence (Q99836 148-296): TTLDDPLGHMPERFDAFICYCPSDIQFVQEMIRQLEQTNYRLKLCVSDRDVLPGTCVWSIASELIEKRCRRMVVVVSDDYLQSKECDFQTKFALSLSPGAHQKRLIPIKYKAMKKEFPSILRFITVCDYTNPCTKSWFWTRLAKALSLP

Sequence: NELLHVWSSKANSLEG
- P3_MyD88 Rank (after) [1]: 648
- P3_MyD88 Rank (before) [2]: 3394

Sequence: DPQDEDWLYERLGGLF
- P8_MyD88 Rank (after) [3]: 712
- P8_MyD88 Rank (before) [4]: 2696

Sequence: YAASPWWFDELVTILG
- Rank (after) [5]: 433
- Rank (before) [6]: 1725

Sequence: ELDFSHFWLFDGQAGGAA
- Rank (after) [7]: 917
- Rank (before) [8]: 3182

Sequence: QLIQQWIELHLHQLHL
- P3_MyD88 Rank (after) [9]: 499
- P3_MyD88 Rank (before) [10]: 2880

Sequence: AVAHEISKKMKIFATI
- Population [11]: 0.00262%

Sequence: YASSTWALDELLQIFE
- Rank (after) [5]: 124
- Rank (before) [6]: 131
- Population [12]: 0.0135%

Sequence: LKWGEPYFCSKLRYAM
- Rank (after) [13]: 476
- Rank (before) [14]: 2449

Sequence: LSRVPSVHDFRGFATI
- Rank (after) [13]: 111
- Rank (before) [14]: 682

Sequence: YLKWGYPWFGIVCVL
- Rank (after) [13]: 166
- Rank (before) [14]: 855

Sequence: PQDLEWLYERLVRLIL
- P8_MyD88 Rank (after) [15]: 287
- P8_MyD88 Rank (before) [16]: 3472

Sequence: DHQLDLPRCKAIKPEILG
- P3_MyD88 Rank (after) [9]: 482
- P3_MyD88 Rank (before) [10]: 2062

Sequence: WALVVLLQILHARELF
- P8_MyD88 Rank (after) [9]: 490
- P8_MyD88 Rank (before) [10]: 1403

Sequence: DPQELDWFYELLVSPF
- P8_MyD88 Rank (after) [3]: 689
- P8_MyD88 Rank (before) [4]: 2982

Sequence: NQLRNAQTAAANLSGW
- P3_MyD88 Rank (after) [15]: 233
- P3_MyD88 Rank (before) [16]: 3463

Sequence: SSFRQGLWRLRELSKK
- Rank (after) [13]: 405
- Rank (before) [14]: 3229

Sequence: WALNELLKILYANETM
- Population [12]: 0.0108%

Sequence: LGYISIVRGYFVGIER
- P8_MyD88 Rank (after) [9]: 486
- P8_MyD88 Rank (before) [10]: 3337

Sequence: LGYRWLDGEYFGGIED
- Rank (after) [5]: 462
- Rank (before) [6]: 3223

Sequence: DPQDLEWFYERLGSLF
- P8_MyD88 Rank (after) [15]: 247
- P8_MyD88 Rank (before) [16]: 2852

Sequence: LKCCYPYFWSKLRYAM
- P3_MyD88 Rank (after) [1]: 612
- P3_MyD88 Rank (before) [2]: 2460

Sequence: PGYHWLEWEYFVGIED
- Rank (after) [5]: 442
- Rank (before) [6]: 1195

Sequence: YAFTGHLQRYLVQRCV
- P3_MyD88 Rank (after) [15]: 234
- P3_MyD88 Rank (before) [16]: 1531

Sequence: LVAHEISKKKKIFATI
- Population [11]: 0.00291%

Sequence: WALDELLQILNAREMF
- Rank (after) [5]: 415
- Rank (before) [6]: 1464

Sequence: EWIREQLRPALKERMT
- P3_MyD88 Rank (after) [1]: 619
- P3_MyD88 Rank (before) [2]: 2151

Sequence: DHHLDLPRGKANKPEILD
- P3_MyD88 Rank (after) [9]: 555
- P3_MyD88 Rank (before) [10]: 2035

Sequence: LVAHEISNNMKIFATI
- Rank (after) [13]: 143
- Rank (before) [14]: 2283

Sequence: RFWESQRYMKPNVSHT
- P3_MyD88 Rank (after) [3]: 708
- P3_MyD88 Rank (before) [4]: 2552

Sequence: QLIQQWIELHLHQLH
- P8_MyD88 Rank (after) [1]: 588
- P8_MyD88 Rank (before) [2]: 3585

Sequence: YGHESEIIKEIVDTIV
- Population [11]: 0.00262%

Sequence: LEYRWIDWEYFVGLED
- Rank (after) [7]: 886
- Rank (before) [8]: 3357

Sequence: ISFREGLWRLLELSKK
- Population [11]: 0.00291%

Sequence: SSFRGGLWRLLELRKE
- P3_MyD88 Rank (after) [9]: 528
- P3_MyD88 Rank (before) [10]: 3131

Sequence: YYFTDWDSEAEIIQKM
- Rank (after) [5]: 112
- Rank (before) [6]: 118
- Population [12]: 0.02%

Sequence: NQWRKALTSAANLSGW
- P3_MyD88 Rank (after) [3]: 703
- P3_MyD88 Rank (before) [4]: 3528

Sequence: YAASMRWFGELAKIVG
- P8_MyD88 Rank (after) [9]: 558
- P8_MyD88 Rank (before) [10]: 1710

Sequence: SSFRVGLWRLLELSKK
- Population [11]: 0.00291%

Sequence: SSFREGLRRLLELSKK
- Population [11]: 0.00291%

Sequence: WALQELVKILQAKIFL
- Rank (after) [5]: 109
- Rank (before) [6]: 115
- Population [12]: 0.02%

Sequence: DLLLSEFQSIFARRTV
- P8_MyD88 Rank (after) [9]: 531
- P8_MyD88 Rank (before) [10]: 2593

Sequence: DIADEDLPYLIRLLYSL
- Rank (after) [7]: 955
- Rank (before) [8]: 3056

Sequence: SSFREGLLRLLELNKK
- Rank (after) [13]: 139
- Rank (before) [14]: 3237

Sequence: DYASNTFLLRELLQIA
- P8_MyD88 Rank (after) [3]: 746
- P8_MyD88 Rank (before) [4]: 2543

Sequence: LGYHWTDWEYFVGIEA
- Rank (after) [5]: 429
- Rank (before) [6]: 3305

Sequence: EWVWDYLLPNLESPAG
- Rank (after) [5]: 437
- Rank (before) [6]: 3162

Sequence: SSCREGLWRLLELSNK
- Rank (after) [13]: 402
- Rank (before) [14]: 3260

Sequence: NQCRNFLTAAANLSGW
- Rank (after) [13]: 164
- Rank (before) [14]: 3465

Sequence: DHHLDLPRGKAIKPVILG
- Population [11]: 0.00291%

Sequence: PQDLEWFYERLFSQM
- Rank (after) [5]: 96
- Rank (before) [6]: 102
- Population [12]: 0.0227%

Sequence: YYDSRWALNELLEIL
- Rank (after) [7]: 903
- Rank (before) [8]: 1682

Sequence: DPQGHAWTYERHLSVF
- P8_MyD88 Rank (after) [1]: 584
- P8_MyD88 Rank (before) [2]: 2674

Sequence: WRDALNNISSIFGWVA
- P8_MyD88 Rank (after) [3]: 764
- P8_MyD88 Rank (before) [4]: 1648

Sequence: PQAPEWSYERLVSLIL
- Rank (after) [7]: 954
- Rank (before) [8]: 3417

Sequence: FGDHRMWWEDLVGIVD
- P8_MyD88 Rank (after) [3]: 695
- P8_MyD88 Rank (before) [4]: 1302

Sequence: YSFTGQLHLYLIHRGV
- Rank (after) [13]: 462
- Rank (before) [14]: 1433

Sequence: SSFLQHPWRLQKLSKK
- Rank (after) [13]: 399
- Rank (before) [14]: 3123

Sequence: HFAFSSWALDELANIL
- P8_MyD88 Rank (after) [15]: 282
- P8_MyD88 Rank (before) [16]: 612

Sequence: PHDLDWLYERPVRLIL
- Rank (after) [7]: 980
- Rank (before) [8]: 3412

Sequence: ELDFASNMEQFWDRLYY
- Rank (after) [7]: 935
- Rank (before) [8]: 3177

Sequence: WALGELLQILQARERC
- Rank (after) [7]: 943
- Rank (before) [8]: 1408

Sequence: DPQDLDWFYKRLVSLL
- Rank (after) [5]: 121
- Rank (before) [6]: 724

Sequence: GLSWVRMNGGWACMM
- Rank (after) [7]: 922
- Rank (before) [8]: 2287

Sequence: SLRQNLVSNLLEEFKR
- Rank (after) [13]: 480
- Rank (before) [14]: 3075

Sequence: WALDGLLKILHARELF
- Rank (after) [5]: 409
- Rank (before) [6]: 1413

Sequence: NQWRNALIAAVNLSGC
- P3_MyD88 Rank (after) [3]: 700
- P3_MyD88 Rank (before) [4]: 3485

Sequence: SPWALYELVEILTAYK
- Rank (after) [5]: 185
- Rank (before) [6]: 251

Sequence: KLDSAMIIKVQRWREA
- P3_MyD88 Rank (after) [1]: 618
- P3_MyD88 Rank (before) [2]: 3698

Sequence: PDEVKRTVGLTFSLSL
- P8_MyD88 Rank (after) [3]: 739
- P8_MyD88 Rank (before) [4]: 3407

Sequence: YTALTNRGFHTFRDHH
- P3_MyD88 Rank (after) [3]: 687
- P3_MyD88 Rank (before) [4]: 1651

Sequence: DPQELDGFYERLVSLF
- Rank (after) [5]: 401
- Rank (before) [6]: 3015

Sequence: YTALPNSGFHTIRDNE
- P3_MyD88 Rank (after) [9]: 552
- P3_MyD88 Rank (before) [10]: 1712

Sequence: YASSSWALNELPRILY
- Rank (after) [5]: 389
- Rank (before) [6]: 1902

Sequence: PQDLEWFYERLVTHVLLRHL
- P8_MyD88 Rank (after) [9]: 566
- P8_MyD88 Rank (before) [10]: 3461

Sequence: WGQAVTEDLWGWLFNP
- Rank (after) [5]: 176
- Rank (before) [6]: 201

Sequence: WALDELLKILYARELF
- P8_MyD88 Rank (after) [15]: 222
- P8_MyD88 Rank (before) [16]: 518

Sequence: PENDNGGENAFINHIV
- P3_MyD88 Rank (after) [1]: 635
- P3_MyD88 Rank (before) [2]: 2700

Sequence: SSFREGLWRLLELSKK
- Population [11]: 0.00466% and 0.00437% and 0.00408% and 0.00378% and 0.00349% and 0.0032% and 0.00291%

Sequence: HWIDWEYFVALKIIL
- Rank (after) [5]: 427
- Rank (before) [6]: 1236
